According to patent US11168094B2, “Quinolinone derivative and pharmaceutical composition for preventing or treating allergic diseases such as asthma or atopic dermatitis including the quinolinone derivative as active ingredient” (Azcuris Co., Ltd., priority 2017, dated 2021):

Columns and labels:
[1] = target: T1, IL-33 (Homo sapiens, UniProt O95760); assay: Inhibition of IL-6 secretion by IL-33 inhibition in HMC-1 cells (IL-6 ELISA); type: cell-based; conditions: HMC1, HMC-1 cells with IL-33, 24 h, negative values indicate increased IL-6 secretion
T1 sequence (O95760 95-270): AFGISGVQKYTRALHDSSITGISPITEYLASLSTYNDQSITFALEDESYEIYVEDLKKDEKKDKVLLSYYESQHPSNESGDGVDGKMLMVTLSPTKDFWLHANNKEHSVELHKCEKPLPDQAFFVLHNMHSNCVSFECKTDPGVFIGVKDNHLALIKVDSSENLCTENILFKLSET
Protocol: First, HMC-1, a human mast cell line, was cultured until an appropriate number of cells was maintained in a 96-well plate. Mixtures of IL-33 and different concentrations (0.3, 3, and 30 μM) of each of the inventive compounds were treated on cells, incubated at 37° C. for 24 h, and centrifuged. The supernatants were analyzed for IL-6 secretion using an IL-6 ELISA kit (Biolegend, USA).

[2] = target: T2, TSLP-TSLPR interaction (Homo sapiens, UniProt Q969D9); assay: ELISA-based TSLP-TSLPR interaction assay; type: binding; conditions: for inhibition at 100 µM: compound 0.1 mM; for inhibition at 100 µM / inhibition at 300 µM / inhibition at 1000 µM: FLAG-TSLP / TSLPR-His ELISA, OD 450 nm; for inhibition at 300 µM: compound 0.3 mM; for inhibition at 1000 µM: compound 1 mM
T2 construct: made in house
Protocol: To this end, home-made FLAG-TSLP protein and TSLPR-His protein were used to establish an ELISA-based TSLP-TSLPR interaction assay for measuring reactions with HRP. The inhibitory activities of the inventive compounds were evaluated by the interaction assay.
ELISA assay was conducted using an Ni-NTA HisSorb plate (Qiagen, Germany). 100 μL of a solution of TSLPR C-terminally tagged with hexahistidine (His) was dispensed into each well of the plate and incubated at room temperature for 2 h. After each well was washed twice with 200 μL of PBS and 0.05% Tween-20, 100 μL of a solution of each of the inventive compounds as a sample and 100 μL of TSLP N-terminally tagged with FLAG was dispensed into the well. After incubation at 4° C. overnight, each well was washed twice and treated with 100 μL of a blocking buffer (PBS-0.05% Tween 20 and 1% nonfat dry milk). The plate was washed twice, coated with 100 μL of a monoclonal anti-FLAG horseradish peroxidase antibody (Sigma-Aldrich Co., USA) for 2 h, and incubated at room temperature. Then, each well was washed 5 times, treated with 200 μL of a solution of o-phenylenediaminedihydrochloride (Sigma-Aldrich Co., USA), incubated for 30 min, and added with 1 N HCl.
Optical densities (ODs) were measured at 450 nm using a microplate spectrophotometer. The inhibitory effect of the compound on TSLP-TSLPR interaction was calculated using the following equation: Inhibition (inhibitory effect) (%)=(1−ODsample/ODcontrol)×100

[3] = tested on: HDM-induced allergic airway inflammation; assay: House dust mite (HDM)-induced allergic airway inflammation mouse models; type: in vivo; conditions: 200 μg intraperitoneal, BALB/c mice, day 11, vs untreated controls (FIG. 4 and 5)
Protocol: Splenocytes were isolated from DO11.10 mice and ˜1×10^6CD4T cells were transferred to pure BALB/c mice by intravenous injection. For 3 days from the next day, 100 μg of a mixture of HDM (Dermatophagoidesfarinae 50 μg, Dermatophagoidespteronyssinus 50 μg, Greer Laboratories, Inc., USA) and OVA (Sigma-Aldrich Co., USA) was administered intranasally to the mice. From day 2 after administration, the mice were treated with 200 μg of each of the inventive compounds or PBS (for control mice) three times daily through the intraperitoneal route. After the mice were euthanized on day 11, the numbers of total cells and eosinophils in the airways were checked. The treatment schedule with the Formula 5 (KB 1517) and Formula 10 (KB 1518) (200 μg each) in house dust mite (HDM)-induced allergic airway inflammation mouse models is shown in FIG. 8.

[4] = target: T1, IL-33; assay: Inhibition of IL-6 secretion by IL-33 inhibition in HMC-1 cells (IL-6 ELISA); type: cell-based; conditions: HMC1, HMC-1 cells with IL-33, 24 h, negative values indicate increased IL-6 secretion; remark: listed apart in the source

Compound `CN(C)CCn1c(=O)c2nc(-c3ccccc3)oc2c2ccccc21` [Compound 2, 5-(2-(dimethylamino)ethyl)-2-phenyloxazolo[4,5-c]quinolin-4(5H)-one] has an inhibition at 3 µM [1] of -11.8%, an inhibition at 100 µM [2] of 26.7% and an inhibition at 300 µM [2] of 49%. The inhibition at 1000 µM [2] was 66.9%.

`CN(C)CCn1c(=O)c2nc(-c3ccc(F)cc3)oc2c2ccccc21` [Compound 3, 5-(2-(dimethylamino)ethyl)-2-(4-fluorophenyl)oxazolo[4,5-c]quinolin-4(5H)-one] showed an inhibition at 3 µM [1] of 29.8%, an inhibition at 100 µM [2] of 17.7% and an inhibition at 300 µM [2] of 27.5%.

`CN(C)CCn1c(=O)c2nc(-c3ccc(Cl)cc3)oc2c2ccccc21` [Compound 4, 2-(4-chlorophenyl)-5-(2-(dimethylamino)ethyl)oxazolo[4,5-c]quinolin-4(5H)-one] gave an inhibition at 0.3 µM [1] of 22.5%, an inhibition at 3 µM [1] of 29.7% and an inhibition at 100 µM [2] of 28.8%. It also gave an inhibition at 300 µM [2] of 46.6%.

Compound `CN(C)CCn1c(=O)c2nc(-c3ccc(C(F)(F)F)cc3)oc2c2ccccc21` [Compound 5, 5-(2-(dimethylamino)ethyl)-2-(4-(trifluoromethyl)phenyl)oxazolo[4,5-c]quinolin-4(5H)-one] has an inhibition at 0.3 µM [1] of 30.4%, an inhibition at 3 µM [1] of 28.2% and an inhibition at 100 µM [2] of 23.2%. The inhibition at 300 µM [2] was 29.6%, the “number of eosinophils in the airways” value [3] was “significantly reduced” and the “number of total cells in the airways” value [3] was “significantly reduced”.

For `COc1ccc(-c2nc3c(=O)n(CCN(C)C)c4ccccc4c3o2)cc1` [Compound 6, 5-(2-(dimethylamino)ethyl)-2-(4-methoxyphenyl)oxazolo[4,5-c]quinolin-4(5H)-one], the inhibition at 3 µM [1] was -57.8%, the inhibition at 100 µM [2] was 25.8% and the inhibition at 300 µM [2] was 54.7%.

For `CN(C)CCOc1nc2ccccc2c2oc(-c3ccccc3)nc12` [Compound 7, N,N-dimethyl-2-((2-phenyloxazolo[4,5-c]quinolin-4-yl)oxy)ethanamine], the inhibition at 3 µM [1] was 35.6%, the inhibition at 100 µM [2] was 27.8% and the inhibition at 300 µM [2] was 54.6%. It also gave an inhibition at 1000 µM [2] of 57.2%.

For `CN(C)CCOc1nc2ccccc2c2oc(-c3ccc(C(F)(F)F)cc3)nc12` [Compound 10, N,N-dimethyl-2-((2-(4-(trifluoromethyl)phenyl)oxazolo[4,5-c]quinolin-4-yl)oxy)ethanamine], the inhibition at 0.3 µM [1] was 49.3%, the inhibition at 3 µM [1] was 51.3% and the “number of eosinophils in the airways” value [3] was “significantly reduced”. For the same compound, the “number of total cells in the airways” value [3] was “significantly reduced” and the inhibition at 0.03 µM [4] was 32.7%.

With “FLAG tag-free TSLP: TSLP protein without FLAG tag, 1 mg/mL, competitor control in the TSLP-TSLPR ELISA [reference compound]” the “Inhibition (%)” value ([2]; 1 mg/mL FLAG tag-free TSLP as competitor) was 40.7%.
